The source of these data is publication PMC11121381, “ABCG2 Mediates Resistance to the Dual EGFR and PI3K Inhibitor MTX-211 in Cancer Cells” (International Journal of Molecular Sciences, 2024).

By IC50 is commonly meant the point on the concentration scale where inhibition reaches its midpoint. A low value points to inhibition by little substance.

One series has as its target T1, ABCG2 (Homo sapiens, UniProt Q9UNQ0).
T1 construct: human ABCG2 in membrane vesicles of High-Five insect cells
T1 sequence (Q9UNQ0 1-655): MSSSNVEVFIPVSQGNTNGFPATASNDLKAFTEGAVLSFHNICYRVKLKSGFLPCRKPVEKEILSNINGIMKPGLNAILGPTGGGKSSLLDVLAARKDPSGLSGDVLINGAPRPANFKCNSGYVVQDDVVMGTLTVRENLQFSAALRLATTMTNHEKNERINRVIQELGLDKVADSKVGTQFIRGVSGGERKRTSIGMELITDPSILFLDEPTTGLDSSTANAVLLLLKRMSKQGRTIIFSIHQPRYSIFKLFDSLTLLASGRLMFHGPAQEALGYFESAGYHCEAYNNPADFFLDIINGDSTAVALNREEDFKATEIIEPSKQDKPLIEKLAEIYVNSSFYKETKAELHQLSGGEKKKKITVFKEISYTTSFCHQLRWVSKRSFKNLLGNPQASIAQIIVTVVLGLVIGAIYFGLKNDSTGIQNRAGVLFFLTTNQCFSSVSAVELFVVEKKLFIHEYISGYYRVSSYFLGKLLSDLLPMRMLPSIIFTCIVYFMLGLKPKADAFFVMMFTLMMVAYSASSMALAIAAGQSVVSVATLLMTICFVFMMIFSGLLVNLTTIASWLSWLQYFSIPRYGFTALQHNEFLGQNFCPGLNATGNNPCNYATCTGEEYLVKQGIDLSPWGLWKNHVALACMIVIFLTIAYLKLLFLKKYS
Nature of the series: vanadate-sensitive ATPase stimulation (endpoint Pi release) in ABCG2 membrane vesicles; supported by LC-MS/MS cell accumulation with and without Ko143. The class given is biochemical. The conditions noted are these: read-out: % of basal ATPase activity (peak stimulation).

Series [1] addresses T2, epidermal growth factor receptor (EGFR) (Homo sapiens, UniProt P00533).
T2 construct: endogenous EGFR in S1 human colon cancer cells
Nature of the series: inhibition of EGF-induced EGFR phosphorylation (Tyr1068) in cells, immunoblot. The class given is cell-based.

T2 sequence (P00533 25-1210): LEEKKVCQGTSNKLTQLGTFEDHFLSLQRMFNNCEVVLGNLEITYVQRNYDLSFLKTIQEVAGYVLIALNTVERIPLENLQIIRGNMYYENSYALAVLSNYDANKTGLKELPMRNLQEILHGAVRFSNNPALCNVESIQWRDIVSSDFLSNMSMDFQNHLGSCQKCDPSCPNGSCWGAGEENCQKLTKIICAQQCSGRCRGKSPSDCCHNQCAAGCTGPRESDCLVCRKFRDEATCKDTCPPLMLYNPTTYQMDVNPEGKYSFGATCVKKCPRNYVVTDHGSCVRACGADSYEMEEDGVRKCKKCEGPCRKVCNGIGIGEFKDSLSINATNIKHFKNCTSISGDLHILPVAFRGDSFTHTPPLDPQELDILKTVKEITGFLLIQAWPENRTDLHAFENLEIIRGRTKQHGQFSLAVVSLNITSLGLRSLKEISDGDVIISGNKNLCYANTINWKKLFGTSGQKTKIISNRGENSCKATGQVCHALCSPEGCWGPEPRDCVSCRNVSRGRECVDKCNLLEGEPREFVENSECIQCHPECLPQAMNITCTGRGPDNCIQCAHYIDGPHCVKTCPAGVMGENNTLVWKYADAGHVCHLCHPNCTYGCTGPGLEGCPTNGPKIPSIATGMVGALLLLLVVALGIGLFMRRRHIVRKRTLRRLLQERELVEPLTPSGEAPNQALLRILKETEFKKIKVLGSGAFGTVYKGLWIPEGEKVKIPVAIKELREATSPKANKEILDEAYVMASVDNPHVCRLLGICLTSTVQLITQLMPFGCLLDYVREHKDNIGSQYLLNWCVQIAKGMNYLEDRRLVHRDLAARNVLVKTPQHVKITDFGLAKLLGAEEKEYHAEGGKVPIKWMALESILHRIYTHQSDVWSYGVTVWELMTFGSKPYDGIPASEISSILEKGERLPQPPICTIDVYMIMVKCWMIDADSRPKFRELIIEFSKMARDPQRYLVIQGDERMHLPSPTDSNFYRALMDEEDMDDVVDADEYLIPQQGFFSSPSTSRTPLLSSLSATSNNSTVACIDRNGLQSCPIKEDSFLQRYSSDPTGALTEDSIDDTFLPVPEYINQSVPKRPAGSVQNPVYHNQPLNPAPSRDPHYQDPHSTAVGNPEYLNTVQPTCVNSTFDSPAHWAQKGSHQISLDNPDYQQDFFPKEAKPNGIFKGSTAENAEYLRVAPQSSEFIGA

For the molecule `CS(=O)(=O)Nc1cc(-c2ccc3ncnc(Nc4ccc(F)c(Cl)c4)c3c2)cnc1Cl` [MTX-211], the Emax on ABCG2 is 157%. Besides, in series [1], half-maximal inhibition (IC50) required 6.64 ± 1.27 µM.
